The source of these data is article PMC6427912 (Journal of medicinal chemistry, 2019).

The target of data set [1] is SaHepPPS (S. aureus heptaprenyl diphosphate synthase) (Staphylococcus aureus, UniProt Q2FYG6). As to the kind of experiment: HepPPS enzyme inhibition assay. The settings on record: IC50 against SaHepPPS. In kind it is biochemical.
For a further data set, the system named is E. faecalis. The settings on record: cited from earlier work.
In a further data set the test system is E. faecium. The settings on record: cited from earlier work.
Another data set deals with S. aureus. The experiment in a line: S. aureus growth inhibition assay. Particulars: for Sa ED50: S. aureus growth inhibition. In kind it is cell-based, Staphylococcus aureus.
In data set [2] the test system is B. subtilis. The experiment in a line: B. subtilis serum binding assay. In kind it is cell-based, Bacillus subtilis.
For data set [3], the system named is B. subtilis. Particulars: cited from earlier work.
The test system of the next data set is HEK293 cells. As to the kind of experiment: HEK293 cell growth inhibition assay. Particulars: for HEK293 toxicity (ED50): 96 hours incubation. The format is cell-based, human.
The subject of another data set is P. aeruginosa FPPS. The settings on record: read-out: activity against P. aeruginosa FPPS; cited from earlier work.
The target of another data set is EcUPPS (Escherichia coli, UniProt P60472). The experiment in a line: UPPS enzyme inhibition assay. In kind it is biochemical, E. coli.
Chain of EcUPPS (P60472 whole entry): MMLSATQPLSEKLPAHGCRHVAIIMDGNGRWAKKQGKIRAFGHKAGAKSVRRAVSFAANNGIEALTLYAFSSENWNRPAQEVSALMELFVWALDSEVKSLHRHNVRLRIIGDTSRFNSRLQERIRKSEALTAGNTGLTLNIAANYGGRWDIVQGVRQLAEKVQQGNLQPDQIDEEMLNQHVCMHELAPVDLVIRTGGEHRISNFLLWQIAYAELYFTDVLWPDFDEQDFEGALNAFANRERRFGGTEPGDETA
Data set [4] has as its system B. subtilis. The experiment in a line: B. subtilis growth inhibition assay. Particulars: value in parentheses. In kind it is cell-based, Bacillus subtilis.
The test system of data set [5] is B. subtilis. The experiment in a line: B. subtilis cell growth inhibition rescue assays. The format is cell-based, Bacillus subtilis.
Another data set has as its system B. anthracis Sterne. In kind it is cell-based, Bacillus anthracis. Particulars: B. anthracis Sterne growth inhibition.
In data set [6] the target is T1, HsFPPS (human farnesyl diphosphate synthase) (Homo sapiens, UniProt P14324).
T1 sequence (P14324 1-419): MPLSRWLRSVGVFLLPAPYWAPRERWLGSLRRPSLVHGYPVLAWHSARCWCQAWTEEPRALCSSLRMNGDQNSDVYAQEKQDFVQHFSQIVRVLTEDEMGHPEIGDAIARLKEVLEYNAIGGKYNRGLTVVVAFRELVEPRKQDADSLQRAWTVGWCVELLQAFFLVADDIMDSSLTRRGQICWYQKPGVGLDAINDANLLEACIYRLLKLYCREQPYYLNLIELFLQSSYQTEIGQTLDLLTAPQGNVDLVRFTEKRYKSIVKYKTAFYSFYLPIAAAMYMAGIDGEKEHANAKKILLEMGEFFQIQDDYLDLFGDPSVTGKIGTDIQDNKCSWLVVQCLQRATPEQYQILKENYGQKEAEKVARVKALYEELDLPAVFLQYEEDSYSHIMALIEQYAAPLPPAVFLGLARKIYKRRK
The experiment in a line: FPPS enzyme inhibition assay. The format is biochemical.

A further data set concerns Mycobacterium smegmatis. The experiment in a line: M. smegmatis growth inhibition assay. The format is cell-based.

Converted amounts (≈) assume the structure as drawn. “And” between values parts separate entries of the source, which are not always exact repeats. Equal entries are not always repeated. Where two headings read alike, the source gives them in different places.

Take `CCCCCCCCCCCCCCOc1cccc(O)c1C(=O)O` [Compound 70]: the IC50 in [1] was 1000 to 2000 nM; with S. aureus (Staphylococcus aureus, read-out: IC50 for S. aureus cell growth inhibition), 19000 nM. Further, the “MIC E. faecalis cell growth” value in the data set on E. faecalis is 4 µg/mL (≈ 11.4 µM). For the same compound, the “MIC E. faecium cell growth” value in the data set with E. faecium is 4 µg/mL (≈ 11.4 µM).
As to `O=P([O-])(O)C(Cn1cc[n+](CCCc2ccc(F)c(F)c2)c1)P(=O)(O)O` (centres unmarked) [Compound 72, reference compound], the “increase in ED50 with 10% serum” value in the data set with B. subtilis [2] (B. subtilis, 10% serum) is 50%. In the data set with B. subtilis [3], the “activity against B. subtilis” value is greater than 100 µg/mL. Moreover, in the data set on HEK293 cells, the “HEK293 toxicity (ED50)” value worked out at 13 µM. The IC50 with P. aeruginosa FPPS is 100 to 200 nM.
Take `CC(C)CCCC(C)CCOc1ccc[n+](CC(P(=O)([O-])O)P(=O)(O)O)c1` (centres unmarked) [Compound 74, Hydrogen(2-(3-((3,7-dimethyloctyl)oxy)pyridin-1-ium-1-yl)-1-phosphonoethyl) phosphonate]: the “inhibition of UPPS” value at EcUPPS is given as “no inhibition”. In the data set on B. subtilis [4], the “Bs ED50” value stood at 2400 nM. Also, the “effect of serum on B. subtilis growth inhibition” value in the data set on B. subtilis [2] (4% or 10% fetal bovine serum) was “little effect”. The “increase in ED50 for B. subtilis growth inhibition, rescue by HMBPP” value in the data set with B. subtilis [5] (50 µM HMBPP) is reported as ~ 2 x. In the data set on B. subtilis [5] (50 µM MK-4), the “increase in ED50 for B. subtilis growth inhibition, rescue by MK-4” value is on record as ~ 5 x. For the same compound, the “Ba ED50” value was 2.3 µg/mL in the data set on B. anthracis Sterne and 5400 nM in the data set with B. anthracis Sterne (value in parentheses). Further, in [6], the IC50 was 200 nM and ~200 nM. Also, the results for the “Ms ED50” value in the data set on Mycobacterium smegmatis (48 hours) and in the data set on Mycobacterium smegmatis (value in parentheses) were 5.9 µg/mL and 14000 nM, respectively. Moreover, the “HEK293 toxicity (ED50)” value with HEK293 cells was 76 µM and ~ 70 µM. For the same compound, the “HEK 293” value in the data set on HEK293 cells (HEK293 cell growth inhibition ED50, 24 hr incubation) was found to be 262 µg/mL. In the data set with HEK293 cells (after 24 hrs), the HEK293 toxicity is ~ 0.5 mM. Further, the “Sa ED50” value in the data set with S. aureus is 14 µg/mL; in the data set on S. aureus (value in parentheses) it was 33000 nM.
